Results from patent US20130209543A1, “ENHANCED TREATMENT REGIMENS USING MTOR INHIBITORS” (Intellikine LLC, priority 2011, published 2013).

Assay: Additional study: grade 3 or greater treatment-emergent adverse events (Table 10)
Format: in vivo, human

CC(C)n1nc(-c2ccc3oc(N)nc3c2)c2c(N)ncnc21 [compound A]
Anaemia, grade 3 or greater TEAE (Total (N = 91)): 6 (7%)
Aspartate aminotransferase increase, grade 3 or greater TEAE (Total (N = 91)): 2 (2%)
Asthenia, grade 3 or greater TEAE (Total (N = 91)): 4 (4%)
Blood creatinine increase, grade 3 or greater TEAE (Total (N = 91)): 2 (2%)
Deep vein thrombosis, grade 3 or greater TEAE (Total (N = 91)): 2 (2%)
Diarrhoea, grade 3 or greater TEAE (Total (N = 91)): 3 (3%)
Disease progression, grade 3 or greater TEAE (Total (N = 91)): 2 (2%)
Fatigue, grade 3 or greater TEAE (Total (N = 91)): 3 (3%)
Gamma-glutamyltransferase increase, grade 3 or greater TEAE (Total (N = 91)): 3 (3%)
Hyperglycaemia, grade 3 or greater TEAE (Total (N = 91)): 9 (10%)
Hypokalaemia, grade 3 or greater TEAE (Total (N = 91)): 3 (3%)
Hyponatraemia, grade 3 or greater TEAE (Total (N = 91)): 2 (2%)
Hypophsphataemia, grade 3 or greater TEAE (Total (N = 91)): 5 (5%)
Lymphopenia, grade 3 or greater TEAE (Total (N = 91)): 6 (7%)
Mucosal Inflammation, grade 3 or greater TEAE (Total (N = 91)): 7 (8%)
Muscular weakness, grade 3 or greater TEAE (Total (N = 91)): 2 (2%)
Nausea, grade 3 or greater TEAE (Total (N = 91)): 2 (2%)
Neutropenia, grade 3 or greater TEAE (Total (N = 91)): 2 (2%)
Pruritus, grade 3 or greater TEAE (Total (N = 91)): 3 (3%)
Rash, grade 3 or greater TEAE (Total (N = 91)): 9 (10%)
Thrombocytopenia, grade 3 or greater TEAE (Total (N = 91)): 2 (2%)
Vomiting, grade 3 or greater TEAE (Total (N = 91)): 3 (3%)
Anaemia, grade 3 or greater TEAE (Total QD Dosing (N = 29)): 1 (3%)
Aspartate aminotransferase increase, grade 3 or greater TEAE (Total QD Dosing (N = 29)): 0 (0%)
Asthenia, grade 3 or greater TEAE (Total QD Dosing (N = 29)): 1 (3%)
Blood creatinine increase, grade 3 or greater TEAE (Total QD Dosing (N = 29)): 0 (0%)
Deep vein thrombosis, grade 3 or greater TEAE (Total QD Dosing (N = 29)): 0 (0%)
Diarrhoea, grade 3 or greater TEAE (Total QD Dosing (N = 29)): 1 (3%)
Disease progression, grade 3 or greater TEAE (Total QD Dosing (N = 29)): 0 (0%)
Fatigue, grade 3 or greater TEAE (Total QD Dosing (N = 29)): 0 (0%)
Gamma-glutamyltransferase increase, grade 3 or greater TEAE (Total QD Dosing (N = 29)): 0 (0%)
Hyperglycaemia, grade 3 or greater TEAE (Total QD Dosing (N = 29)): 4 (14%)
Hypokalaemia, grade 3 or greater TEAE (Total QD Dosing (N = 29)): 2 (7%)
Hyponatraemia, grade 3 or greater TEAE (Total QD Dosing (N = 29)): 2 (7%)
Hypophsphataemia, grade 3 or greater TEAE (Total QD Dosing (N = 29)): 0 (0%)
Lymphopenia, grade 3 or greater TEAE (Total QD Dosing (N = 29)): 2 (7%)
Mucosal Inflammation, grade 3 or greater TEAE (Total QD Dosing (N = 29)): 0 (0%)
Muscular weakness, grade 3 or greater TEAE (Total QD Dosing (N = 29)): 0 (0%)
Nausea, grade 3 or greater TEAE (Total QD Dosing (N = 29)): 0 (0%)
Neutropenia, grade 3 or greater TEAE (Total QD Dosing (N = 29)): 0 (0%)
Pruritus, grade 3 or greater TEAE (Total QD Dosing (N = 29)): 2 (7%)
Rash, grade 3 or greater TEAE (Total QD Dosing (N = 29)): 7 (24%)
Thrombocytopenia, grade 3 or greater TEAE (Total QD Dosing (N = 29)): 2 (7%)
Vomiting, grade 3 or greater TEAE (Total QD Dosing (N = 29)): 0 (0%)
Anaemia, grade 3 or greater TEAE (Total QDx3d QW (N = 25)): 2 (8%)
Aspartate aminotransferase increase, grade 3 or greater TEAE (Total QDx3d QW (N = 25)): 0 (0%)
Asthenia, grade 3 or greater TEAE (Total QDx3d QW (N = 25)): 1 (4%)
Blood creatinine increase, grade 3 or greater TEAE (Total QDx3d QW (N = 25)): 2 (8%)
Deep vein thrombosis, grade 3 or greater TEAE (Total QDx3d QW (N = 25)): 1 (4%)
Diarrhoea, grade 3 or greater TEAE (Total QDx3d QW (N = 25)): 1 (4%)
Disease progression, grade 3 or greater TEAE (Total QDx3d QW (N = 25)): 0 (0%)
Fatigue, grade 3 or greater TEAE (Total QDx3d QW (N = 25)): 0 (0%)
Gamma-glutamyltransferase increase, grade 3 or greater TEAE (Total QDx3d QW (N = 25)): 1 (4%)
Hyperglycaemia, grade 3 or greater TEAE (Total QDx3d QW (N = 25)): 4 (16%)
Hypokalaemia, grade 3 or greater TEAE (Total QDx3d QW (N = 25)): 0 (0%)
Hyponatraemia, grade 3 or greater TEAE (Total QDx3d QW (N = 25)): 0 (0%)
Hypophsphataemia, grade 3 or greater TEAE (Total QDx3d QW (N = 25)): 3 (12%)
Lymphopenia, grade 3 or greater TEAE (Total QDx3d QW (N = 25)): 2 (8%)
Mucosal Inflammation, grade 3 or greater TEAE (Total QDx3d QW (N = 25)): 4 (16%)
Muscular weakness, grade 3 or greater TEAE (Total QDx3d QW (N = 25)): 1 (4%)
Nausea, grade 3 or greater TEAE (Total QDx3d QW (N = 25)): 1 (4%)
Neutropenia, grade 3 or greater TEAE (Total QDx3d QW (N = 25)): 0 (0%)
Pruritus, grade 3 or greater TEAE (Total QDx3d QW (N = 25)): 1 (4%)
Rash, grade 3 or greater TEAE (Total QDx3d QW (N = 25)): 1 (4%)
Thrombocytopenia, grade 3 or greater TEAE (Total QDx3d QW (N = 25)): 0 (0%)
Vomiting, grade 3 or greater TEAE (Total QDx3d QW (N = 25)): 1 (4%)
Anaemia, grade 3 or greater TEAE (Total QDx5d QW (N = 15)): 1 (7%)
Aspartate aminotransferase increase, grade 3 or greater TEAE (Total QDx5d QW (N = 15)): 1 (7%)
Asthenia, grade 3 or greater TEAE (Total QDx5d QW (N = 15)): 1 (7%)
Blood creatinine increase, grade 3 or greater TEAE (Total QDx5d QW (N = 15)): 0 (0%)
Deep vein thrombosis, grade 3 or greater TEAE (Total QDx5d QW (N = 15)): 0 (0%)
Diarrhoea, grade 3 or greater TEAE (Total QDx5d QW (N = 15)): 0 (0%)
Disease progression, grade 3 or greater TEAE (Total QDx5d QW (N = 15)): 0 (0%)
Fatigue, grade 3 or greater TEAE (Total QDx5d QW (N = 15)): 2 (13%)
Gamma-glutamyltransferase increase, grade 3 or greater TEAE (Total QDx5d QW (N = 15)): 1 (7%)
Hyperglycaemia, grade 3 or greater TEAE (Total QDx5d QW (N = 15)): 1 (7%)
Hypokalaemia, grade 3 or greater TEAE (Total QDx5d QW (N = 15)): 0 (0%)
Hyponatraemia, grade 3 or greater TEAE (Total QDx5d QW (N = 15)): 0 (0%)
Hypophsphataemia, grade 3 or greater TEAE (Total QDx5d QW (N = 15)): 2 (13%)
Lymphopenia, grade 3 or greater TEAE (Total QDx5d QW (N = 15)): 1 (7%)
Mucosal Inflammation, grade 3 or greater TEAE (Total QDx5d QW (N = 15)): 3 (20%)
Muscular weakness, grade 3 or greater TEAE (Total QDx5d QW (N = 15)): 0 (0%)
Nausea, grade 3 or greater TEAE (Total QDx5d QW (N = 15)): 1 (7%)
Neutropenia, grade 3 or greater TEAE (Total QDx5d QW (N = 15)): 1 (7%)
Pruritus, grade 3 or greater TEAE (Total QDx5d QW (N = 15)): 0 (0%)
Rash, grade 3 or greater TEAE (Total QDx5d QW (N = 15)): 1 (7%)
Thrombocytopenia, grade 3 or greater TEAE (Total QDx5d QW (N = 15)): 0 (0%)
Vomiting, grade 3 or greater TEAE (Total QDx5d QW (N = 15)): 1 (7%)
Anaemia, grade 3 or greater TEAE (Total QW Dosing (N = 22)): 2 (9%)
Aspartate aminotransferase increase, grade 3 or greater TEAE (Total QW Dosing (N = 22)): 1 (5%)
Asthenia, grade 3 or greater TEAE (Total QW Dosing (N = 22)): 1 (5%)
Blood creatinine increase, grade 3 or greater TEAE (Total QW Dosing (N = 22)): 0 (0%)
Deep vein thrombosis, grade 3 or greater TEAE (Total QW Dosing (N = 22)): 1 (5%)
Diarrhoea, grade 3 or greater TEAE (Total QW Dosing (N = 22)): 1 (5%)
Disease progression, grade 3 or greater TEAE (Total QW Dosing (N = 22)): 2 (9%)
Fatigue, grade 3 or greater TEAE (Total QW Dosing (N = 22)): 1 (5%)
Gamma-glutamyltransferase increase, grade 3 or greater TEAE (Total QW Dosing (N = 22)): 1 (5%)
Hyperglycaemia, grade 3 or greater TEAE (Total QW Dosing (N = 22)): 0 (0%)
Hypokalaemia, grade 3 or greater TEAE (Total QW Dosing (N = 22)): 1 (5%)
Hyponatraemia, grade 3 or greater TEAE (Total QW Dosing (N = 22)): 0 (0%)
Hypophsphataemia, grade 3 or greater TEAE (Total QW Dosing (N = 22)): 0 (0%)
Lymphopenia, grade 3 or greater TEAE (Total QW Dosing (N = 22)): 1 (5%)
Mucosal Inflammation, grade 3 or greater TEAE (Total QW Dosing (N = 22)): 0 (0%)
Muscular weakness, grade 3 or greater TEAE (Total QW Dosing (N = 22)): 1 (5%)
Nausea, grade 3 or greater TEAE (Total QW Dosing (N = 22)): 0 (0%)
Neutropenia, grade 3 or greater TEAE (Total QW Dosing (N = 22)): 1 (5%)
Pruritus, grade 3 or greater TEAE (Total QW Dosing (N = 22)): 0 (0%)
Rash, grade 3 or greater TEAE (Total QW Dosing (N = 22)): 0 (0%)
Thrombocytopenia, grade 3 or greater TEAE (Total QW Dosing (N = 22)): 0 (0%)
Vomiting, grade 3 or greater TEAE (Total QW Dosing (N = 22)): 1 (5%)
